# According to ChEMBL document CHEMBL1201862, “PubChem BioAssay data set” (2004):
# Active and inactive are the calls of the source.
# How the values were obtained:
# [1] = biological target: Voltage-dependent T-type calcium channel subunit alpha-1H (Homo sapiens, UniProt O95180); type: functional;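 note: channel activity triggered by adding a high calcium stimulation buffer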
# Protein skinhead-1 = biological target: T1, Protein skinhead-1 (Caenorhabditis elegans, UniProt P34707); type: functional
# T1 sequence (P34707 whole entry): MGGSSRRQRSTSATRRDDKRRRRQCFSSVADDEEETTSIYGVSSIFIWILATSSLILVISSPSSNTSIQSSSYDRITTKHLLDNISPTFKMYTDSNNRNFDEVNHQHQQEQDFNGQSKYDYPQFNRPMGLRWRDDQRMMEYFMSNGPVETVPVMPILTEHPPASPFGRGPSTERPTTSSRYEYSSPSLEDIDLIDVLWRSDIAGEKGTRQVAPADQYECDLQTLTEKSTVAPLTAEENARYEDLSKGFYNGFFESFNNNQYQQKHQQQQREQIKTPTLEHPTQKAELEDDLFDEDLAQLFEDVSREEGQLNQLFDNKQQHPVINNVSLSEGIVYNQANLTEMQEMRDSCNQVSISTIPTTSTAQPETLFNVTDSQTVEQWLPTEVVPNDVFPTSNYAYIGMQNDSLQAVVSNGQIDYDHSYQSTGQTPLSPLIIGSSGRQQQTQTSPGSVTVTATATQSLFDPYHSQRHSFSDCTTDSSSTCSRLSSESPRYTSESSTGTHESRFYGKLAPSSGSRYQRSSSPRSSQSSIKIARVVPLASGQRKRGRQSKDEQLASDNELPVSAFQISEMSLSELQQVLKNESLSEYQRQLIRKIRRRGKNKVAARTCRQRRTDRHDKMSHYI
# [2] = biological target: Peroxisome proliferator-activated receptor gamma/Nuclear receptor coactivator 1 (Homo sapiens, UniProt P37231); type: functional;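 note: agonist potency as compounds enhance coactivator SRC-1 recruitment to PPARgamma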
# Sequence of Peroxisome proliferator-activated receptor gamma/Nuclear receptor coactivator 1 (P37231 whole entry): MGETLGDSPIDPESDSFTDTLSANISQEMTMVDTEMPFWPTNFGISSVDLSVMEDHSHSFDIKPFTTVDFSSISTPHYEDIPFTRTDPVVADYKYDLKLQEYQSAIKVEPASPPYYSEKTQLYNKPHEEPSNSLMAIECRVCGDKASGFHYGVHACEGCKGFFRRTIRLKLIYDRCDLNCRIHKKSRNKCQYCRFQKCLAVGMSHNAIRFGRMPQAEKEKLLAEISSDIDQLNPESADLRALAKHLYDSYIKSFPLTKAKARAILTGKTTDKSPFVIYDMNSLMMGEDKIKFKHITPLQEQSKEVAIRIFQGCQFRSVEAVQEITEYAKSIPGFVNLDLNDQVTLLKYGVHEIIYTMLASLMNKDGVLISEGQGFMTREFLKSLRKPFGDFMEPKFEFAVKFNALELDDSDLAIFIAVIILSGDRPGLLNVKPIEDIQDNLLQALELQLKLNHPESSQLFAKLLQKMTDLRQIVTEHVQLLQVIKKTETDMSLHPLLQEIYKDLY
# Sequence of Peroxisome proliferator-activated receptor gamma/Nuclear receptor coactivator 1 (Q15788 whole entry, further chain): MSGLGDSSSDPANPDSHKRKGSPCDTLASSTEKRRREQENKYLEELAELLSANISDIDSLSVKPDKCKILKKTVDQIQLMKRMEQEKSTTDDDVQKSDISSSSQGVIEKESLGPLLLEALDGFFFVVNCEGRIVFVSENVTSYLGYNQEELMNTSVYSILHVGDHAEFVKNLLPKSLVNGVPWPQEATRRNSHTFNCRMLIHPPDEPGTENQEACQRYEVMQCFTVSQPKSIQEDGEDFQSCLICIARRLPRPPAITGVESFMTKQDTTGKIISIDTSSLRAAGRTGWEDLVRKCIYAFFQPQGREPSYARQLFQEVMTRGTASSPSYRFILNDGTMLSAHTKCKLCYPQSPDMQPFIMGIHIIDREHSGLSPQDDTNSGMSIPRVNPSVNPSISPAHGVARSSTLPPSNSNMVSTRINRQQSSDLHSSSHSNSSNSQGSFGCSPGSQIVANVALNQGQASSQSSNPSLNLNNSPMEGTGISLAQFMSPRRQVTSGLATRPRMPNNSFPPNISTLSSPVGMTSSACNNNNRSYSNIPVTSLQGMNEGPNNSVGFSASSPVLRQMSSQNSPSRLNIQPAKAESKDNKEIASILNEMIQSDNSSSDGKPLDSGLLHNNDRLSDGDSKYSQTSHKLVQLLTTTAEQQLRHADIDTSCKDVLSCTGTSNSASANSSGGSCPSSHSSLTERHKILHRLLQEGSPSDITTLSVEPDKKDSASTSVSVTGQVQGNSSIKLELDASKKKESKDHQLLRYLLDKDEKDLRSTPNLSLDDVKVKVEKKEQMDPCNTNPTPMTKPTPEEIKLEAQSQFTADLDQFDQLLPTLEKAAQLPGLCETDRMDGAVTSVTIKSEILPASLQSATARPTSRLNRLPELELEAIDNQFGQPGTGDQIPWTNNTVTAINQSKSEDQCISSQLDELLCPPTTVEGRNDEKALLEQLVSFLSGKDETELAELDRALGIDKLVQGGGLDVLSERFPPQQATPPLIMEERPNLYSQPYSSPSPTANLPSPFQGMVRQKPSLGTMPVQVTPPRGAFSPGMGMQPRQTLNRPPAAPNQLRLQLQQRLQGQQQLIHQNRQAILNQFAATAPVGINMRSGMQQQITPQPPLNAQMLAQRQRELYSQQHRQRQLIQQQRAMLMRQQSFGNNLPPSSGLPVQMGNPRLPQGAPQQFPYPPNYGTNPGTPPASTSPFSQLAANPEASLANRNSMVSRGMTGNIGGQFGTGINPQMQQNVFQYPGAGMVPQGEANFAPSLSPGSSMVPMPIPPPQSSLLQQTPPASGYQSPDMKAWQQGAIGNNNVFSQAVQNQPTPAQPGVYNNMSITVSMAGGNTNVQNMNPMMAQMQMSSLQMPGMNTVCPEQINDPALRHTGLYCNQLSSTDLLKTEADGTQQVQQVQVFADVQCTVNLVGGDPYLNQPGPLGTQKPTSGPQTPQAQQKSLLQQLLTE
# H9c2 = experiment: cells; type: functional, cell-based; conditions: Rattus norvegicus, H9c2, Myocardium;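 note: confirmatory concentration-response retest of ultra-high-throughput screening hits for modulation of myocardial damage; cell death induced by hydrogen peroxide oxidative stress; compound pretreatment for 60 min then peroxide exposure for 2 h; potency is for protecting the cells against peroxide damage rather than for killing them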
# [3] = biological target: Peroxisome proliferator-activated receptor gamma/Nuclear receptor coactivator 2 (Homo sapiens, UniProt P37231); type: functional;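 note: agonist potency for raising coactivator recruitment to the receptor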
# [4] = biological target: Peroxisome proliferator-activated receptor gamma/Nuclear receptor coactivator 3 (Homo sapiens, UniProt P37231); type: functional;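 note: agonist potency for raising coactivator recruitment to the receptor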
# Sequence of Peroxisome proliferator-activated receptor gamma/Nuclear receptor coactivator 3 (P37231 whole entry): as the sequence (P37231 whole entry) above
# Sequence of Peroxisome proliferator-activated receptor gamma/Nuclear receptor coactivator 3 (Q9Y6Q9 whole entry, further chain): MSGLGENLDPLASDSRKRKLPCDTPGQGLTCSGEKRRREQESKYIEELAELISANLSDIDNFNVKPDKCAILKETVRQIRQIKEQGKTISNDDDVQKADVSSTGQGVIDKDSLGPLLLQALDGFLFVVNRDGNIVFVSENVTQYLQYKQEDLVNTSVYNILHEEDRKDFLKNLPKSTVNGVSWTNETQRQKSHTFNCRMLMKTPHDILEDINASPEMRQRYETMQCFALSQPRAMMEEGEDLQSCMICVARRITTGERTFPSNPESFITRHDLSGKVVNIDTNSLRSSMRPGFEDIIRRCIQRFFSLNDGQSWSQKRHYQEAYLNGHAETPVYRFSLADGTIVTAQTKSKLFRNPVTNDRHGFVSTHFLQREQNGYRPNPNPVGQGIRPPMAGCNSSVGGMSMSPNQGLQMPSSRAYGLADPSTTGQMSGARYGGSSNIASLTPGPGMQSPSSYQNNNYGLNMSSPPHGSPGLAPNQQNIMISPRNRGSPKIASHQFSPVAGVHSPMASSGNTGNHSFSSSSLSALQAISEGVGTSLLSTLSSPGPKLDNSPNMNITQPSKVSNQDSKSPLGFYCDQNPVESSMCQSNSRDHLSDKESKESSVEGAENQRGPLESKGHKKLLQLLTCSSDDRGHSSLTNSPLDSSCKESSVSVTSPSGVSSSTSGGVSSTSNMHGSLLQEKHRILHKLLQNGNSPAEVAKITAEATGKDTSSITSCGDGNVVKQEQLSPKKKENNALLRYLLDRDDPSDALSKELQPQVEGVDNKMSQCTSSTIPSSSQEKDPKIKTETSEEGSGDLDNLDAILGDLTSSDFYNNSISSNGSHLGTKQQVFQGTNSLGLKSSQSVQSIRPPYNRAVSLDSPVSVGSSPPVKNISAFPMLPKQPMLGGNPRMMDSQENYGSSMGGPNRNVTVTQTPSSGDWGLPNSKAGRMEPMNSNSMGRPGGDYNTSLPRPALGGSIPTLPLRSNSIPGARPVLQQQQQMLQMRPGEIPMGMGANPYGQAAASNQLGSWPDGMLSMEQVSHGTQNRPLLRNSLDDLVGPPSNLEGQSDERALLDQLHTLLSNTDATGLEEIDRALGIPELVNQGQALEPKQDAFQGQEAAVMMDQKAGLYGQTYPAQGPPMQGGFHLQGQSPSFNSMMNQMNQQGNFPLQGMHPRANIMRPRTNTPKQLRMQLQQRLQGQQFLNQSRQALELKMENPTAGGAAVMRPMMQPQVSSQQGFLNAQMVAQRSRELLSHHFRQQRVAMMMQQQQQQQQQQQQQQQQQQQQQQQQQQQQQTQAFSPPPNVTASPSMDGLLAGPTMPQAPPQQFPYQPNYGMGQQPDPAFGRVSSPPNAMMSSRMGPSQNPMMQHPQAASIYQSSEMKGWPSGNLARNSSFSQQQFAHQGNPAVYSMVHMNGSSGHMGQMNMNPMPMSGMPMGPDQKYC
# [5] = biological target: T2, Corticotropin-releasing factor receptor 2/Corticotropin-releasing factor-binding protein (Homo sapiens, UniProt P24387+Q13324); experiment: Dose Response confirmation of uHTS hits for small molecule antagonists of the CRF-binding protein and CRF-R2 receptor complex.; type: functional; conditions: read-out: IC50_Mean
# T2 sequence (Q13324 whole entry): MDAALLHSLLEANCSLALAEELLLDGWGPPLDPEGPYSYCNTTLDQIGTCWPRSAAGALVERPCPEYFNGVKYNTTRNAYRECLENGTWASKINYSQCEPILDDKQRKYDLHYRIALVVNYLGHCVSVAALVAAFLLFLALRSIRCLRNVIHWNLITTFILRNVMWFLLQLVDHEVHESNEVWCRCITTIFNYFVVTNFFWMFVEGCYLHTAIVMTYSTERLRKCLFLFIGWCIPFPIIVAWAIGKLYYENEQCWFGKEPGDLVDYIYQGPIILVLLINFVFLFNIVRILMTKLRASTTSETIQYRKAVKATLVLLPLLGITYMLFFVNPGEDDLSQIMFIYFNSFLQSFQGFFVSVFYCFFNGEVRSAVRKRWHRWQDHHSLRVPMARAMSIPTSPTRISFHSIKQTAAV
# T2 sequence (P24387 whole entry): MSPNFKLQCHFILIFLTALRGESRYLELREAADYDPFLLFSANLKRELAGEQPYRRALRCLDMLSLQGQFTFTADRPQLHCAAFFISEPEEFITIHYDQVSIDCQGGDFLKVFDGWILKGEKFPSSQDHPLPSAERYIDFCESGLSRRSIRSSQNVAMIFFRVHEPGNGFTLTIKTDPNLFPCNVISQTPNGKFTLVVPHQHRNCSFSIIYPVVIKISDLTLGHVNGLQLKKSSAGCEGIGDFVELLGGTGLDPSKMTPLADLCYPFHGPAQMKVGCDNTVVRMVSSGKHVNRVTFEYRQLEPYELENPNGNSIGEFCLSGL
# [6] = biological target: T2, Corticotropin-releasing factor receptor 2/Corticotropin-releasing factor-binding protein; experiment: activators of CRF receptor 2 with binding protein – uHTS hits, confirmation (AID 602473); type: functional; conditions: read-out: EC50_Mean
# Genome polyprotein = Genome polyprotein (dengue virus type 2, UniProt P29990); experiment: flavivirus cap methylation enzyme inhibition – biochemical, confirmation dose response, primary screen (AID 588689); type: functional
# Sequence of Genome polyprotein (P29990 2492-3391 limits assumed): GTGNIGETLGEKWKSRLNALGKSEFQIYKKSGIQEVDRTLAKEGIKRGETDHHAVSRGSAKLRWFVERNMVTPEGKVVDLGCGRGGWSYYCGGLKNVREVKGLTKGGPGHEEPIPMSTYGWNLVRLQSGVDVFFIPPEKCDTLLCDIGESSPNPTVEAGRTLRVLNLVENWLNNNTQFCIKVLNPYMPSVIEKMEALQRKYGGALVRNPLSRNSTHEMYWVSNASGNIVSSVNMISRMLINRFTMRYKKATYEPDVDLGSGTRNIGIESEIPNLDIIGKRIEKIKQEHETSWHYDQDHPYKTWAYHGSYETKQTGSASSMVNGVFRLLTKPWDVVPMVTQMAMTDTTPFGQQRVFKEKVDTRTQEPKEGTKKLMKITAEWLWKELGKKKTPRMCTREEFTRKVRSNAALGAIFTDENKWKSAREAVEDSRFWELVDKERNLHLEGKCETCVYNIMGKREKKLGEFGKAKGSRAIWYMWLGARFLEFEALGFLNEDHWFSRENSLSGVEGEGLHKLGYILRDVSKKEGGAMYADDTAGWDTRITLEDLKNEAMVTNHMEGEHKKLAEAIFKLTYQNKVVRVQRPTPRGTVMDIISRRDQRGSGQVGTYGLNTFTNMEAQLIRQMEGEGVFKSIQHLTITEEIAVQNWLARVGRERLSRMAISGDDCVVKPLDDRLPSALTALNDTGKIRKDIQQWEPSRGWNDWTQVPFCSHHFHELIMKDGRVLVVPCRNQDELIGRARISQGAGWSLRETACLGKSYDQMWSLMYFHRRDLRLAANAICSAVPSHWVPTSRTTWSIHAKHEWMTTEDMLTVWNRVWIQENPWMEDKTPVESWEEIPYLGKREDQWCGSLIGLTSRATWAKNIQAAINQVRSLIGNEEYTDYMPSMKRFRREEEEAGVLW
# Cytochrome P450 3A4 = Cytochrome P450 3A4 (Homo sapiens, UniProt P08684);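 note: CYP3A4 tested as one member of a cytochrome P450 panel screen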
# cells = type: functional
# [7] = luciferase reporter signal suppression in cells – H4 neuroglioma cells, luminescence, dose response (AID 1990); type: functional, cell-based
# [8] = NIH3T3 cell viability loss – ATP luminescence, mouse fibroblasts, counter-screen, dose response (AID 2010); type: functional, cell-based;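 note: cells exposed to compound for about 90 hours before reading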
# [9] = Luminescence Cell-Based Dose Response HTS to Identify Inhibitors of 5'UTR Stem-Loop Driven Prion Protein mRNA Translation in H4 Neuroglioblastoma Cells. [Related pubchem assays: 1827 (Project Summary), 1813 (Primary HTS)]; type: functional
# [10] = Trypanosoma cruzi growth suppression in host cells – NIH3T3 host cells, beta-gal luminescence, confirmation (AID 2044); type: functional, cell-based;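 note: intracellular parasites grown in NIH/3T3 mouse fibroblasts as host cells; luminescent beta-galactosidase reporter signal from transgenic T. cruzi replicating inside host cells; inhibitors lower the luminescence signal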
# [11] = biological target: T3, Short transient receptor potential channel 4 (Mus musculus, UniProt Q9QUQ5); experiment: calcium entry via TRPC4 opening agents – cell-based, HEK293 TRPC4/mu-opioid, Fluo-4 calcium, dose response (AID 434937); type: functional
# T3 sequence (Q9QUQ5 whole entry): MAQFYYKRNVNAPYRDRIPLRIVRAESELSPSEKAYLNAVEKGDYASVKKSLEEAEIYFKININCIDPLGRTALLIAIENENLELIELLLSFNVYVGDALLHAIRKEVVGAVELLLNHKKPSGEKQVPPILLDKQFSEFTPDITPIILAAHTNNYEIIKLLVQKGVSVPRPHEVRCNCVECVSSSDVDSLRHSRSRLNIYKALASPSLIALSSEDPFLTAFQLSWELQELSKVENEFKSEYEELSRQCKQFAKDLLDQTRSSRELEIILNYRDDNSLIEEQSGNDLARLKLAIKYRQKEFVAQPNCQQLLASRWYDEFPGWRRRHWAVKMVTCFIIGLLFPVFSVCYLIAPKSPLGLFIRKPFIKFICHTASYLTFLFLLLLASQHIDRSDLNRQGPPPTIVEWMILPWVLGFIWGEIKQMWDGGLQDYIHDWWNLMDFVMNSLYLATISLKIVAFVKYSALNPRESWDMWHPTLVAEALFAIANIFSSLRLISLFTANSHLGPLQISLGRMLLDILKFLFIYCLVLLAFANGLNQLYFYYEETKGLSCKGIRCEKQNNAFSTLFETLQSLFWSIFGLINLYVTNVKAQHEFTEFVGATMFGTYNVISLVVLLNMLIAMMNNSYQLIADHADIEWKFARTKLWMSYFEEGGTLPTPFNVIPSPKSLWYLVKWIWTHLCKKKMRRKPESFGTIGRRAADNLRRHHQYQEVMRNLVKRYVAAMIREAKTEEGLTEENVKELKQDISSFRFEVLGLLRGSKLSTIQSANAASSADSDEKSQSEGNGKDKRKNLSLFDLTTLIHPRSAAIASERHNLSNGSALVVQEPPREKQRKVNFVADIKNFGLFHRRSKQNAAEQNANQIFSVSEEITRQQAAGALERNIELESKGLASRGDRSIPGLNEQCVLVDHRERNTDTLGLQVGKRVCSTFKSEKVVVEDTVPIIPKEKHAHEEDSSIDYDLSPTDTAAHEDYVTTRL
# [12] = alpha-synuclein stem-loop luciferase translation blockers – H4 neuroglioma cells, luminescence, confirmation (AID 1988); type: functional, cell-based
# [13] = THP-1 cell cytotoxicity, dose response, cytotoxicity control for non-replicating M. tuberculosis project (AID 489025); type: functional
# HEK293 [14] = experiment: NOD2 signaling inhibitors in MDP-stimulated cells, cell-based, uHTS, luminescence (AID 2001); type: functional; conditions: Homo sapiens
# HEK293 [15] = experiment: inhibition of NOD1-driven NF-kB reporter – cell-based, luminescence, uHTS, primary screen (AID 1578); type: functional; conditions: Homo sapiens
# HEK293 [16] = experiment: cells; type: functional, cell-based; conditions: Homo sapiens
# Cytochrome P450 1A2 = biological target: T4, Cytochrome P450 1A2 (Homo sapiens, UniProt P05177);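 note: PubChem cytochrome P450 panel assay, CYP1A2 panel member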
# T4 sequence (P05177 whole entry): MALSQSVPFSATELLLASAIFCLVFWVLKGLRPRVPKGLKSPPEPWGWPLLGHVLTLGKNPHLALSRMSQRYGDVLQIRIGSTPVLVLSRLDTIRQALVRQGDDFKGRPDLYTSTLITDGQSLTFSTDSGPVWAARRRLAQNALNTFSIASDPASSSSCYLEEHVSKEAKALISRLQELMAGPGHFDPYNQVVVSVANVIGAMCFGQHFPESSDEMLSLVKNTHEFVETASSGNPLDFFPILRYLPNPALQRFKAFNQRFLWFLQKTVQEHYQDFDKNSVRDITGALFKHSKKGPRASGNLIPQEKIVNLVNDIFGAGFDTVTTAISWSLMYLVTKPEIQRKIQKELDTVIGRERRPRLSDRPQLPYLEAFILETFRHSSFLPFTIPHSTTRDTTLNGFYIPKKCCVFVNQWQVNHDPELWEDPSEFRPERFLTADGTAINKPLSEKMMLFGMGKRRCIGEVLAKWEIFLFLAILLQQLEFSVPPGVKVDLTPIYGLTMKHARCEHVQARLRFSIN
# [17] = Luminescence Cell-Based Dose Retest to Confirm Inhibitors of Cancer Stem Cells. [Related pubchem assays (depositor defined):AID2717, AID2721]; type: functional; conditions: Homo sapiens
# [18] = viability of PTEN-deleted HCT116 cells – cell-based, HCT116 PTEN knockout, dose response (AID 1047); type: functional;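 note: HCT116 colon tumor cells with PTEN knocked out; cells exposed to compound for 60 hours before readout; potency for loss of cell viability measured by luminescence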
# [19] = viability of HCT116 lacking mutant beta-catenin – cell-based, human colon tumor, dose response (AID 1045); type: functional;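 note: HCT116 colon tumor cells with beta catenin knocked out; cells exposed to compound for 60 hours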
compound,measurement,setting,value
COc1ccccc1NC(=O)c1nnn(Cc2ccccc2)c1NC(=O)C(F)(F)F,EC50,[1],3.86 µM (active)
COc1ccccc1C(=O)Nc1ccc(Br)c2cccnc12,IC50,Protein skinhead-1,> 100 µM (inactive)
CCN(CC)CCn1c(NC(=O)c2ccc(Cl)cc2)nc2ccccc21,EC50,[2],> 79.4 µM (not active)
same,IC50,H9c2,> 79 µM (inactive)
same,EC50,[3],> 79.4 µM (not active)
same,EC50,[4],> 79.4 µM (not active)
Cn1c(=O)n(C)c2cc(/C=C(/C#N)C(=O)NCc3ccco3)ccc21,IC50,Protein skinhead-1,> 100 µM (inactive)
COC(=O)c1cnn(-c2nc3c(C)cccc3s2)c1C,EC50,[2],54.5 µM (not active)
same,EC50,[3],30 µM (not active)
same,EC50,[4],67 µM (not active)
O=C(COc1ccc(Cl)cc1)NCCSCc1cccc(Cl)c1,EC50,[1],3.76 µM (active)
Cc1ccc(NS(=O)(=O)c2cccs2)cc1S(=O)(=O)N1CCCCCC1,EC50,[2],> 79.4 µM (not active)
same,IC50,[5],> 47.1 µM (inactive)
same,EC50,[6],> 53 µM (inactive)
same,EC50,[3],> 79.4 µM (not active)
same,EC50,[4],> 79.4 µM (not active)
Cc1ccc(S(=O)(=O)NC(=O)COc2ccccc2)cc1,EC50,[2],> 79.4 µM (not active)
same,EC50,[3],> 79.4 µM (not active)
same,EC50,[4],> 79.4 µM (not active)
CN1C(=O)C(=Cc2ccccc2Oc2ccc(Cl)c(F)c2)C(=O)N(C)C1=O,IC50,Genome polyprotein,51.9 µM (active)
same,AC50,Cytochrome P450 3A4,14.1 µM (inconclusive)
CSc1ccc(Cl)c(C(=O)NCc2ccco2)c1,IC50,Protein skinhead-1,> 100 µM (inactive)
O=C(CSc1nc2ccccc2[nH]1)Nc1ccc2c(c1)OCCO2,EC50,[1],13.3 µM (active)
Cc1cc(OCCCCn2ccnc2)cc(C)c1Cl,IC50,cells,15.8 µM (active)
same,EC50,[7],> 120 µM (not active)
same,EC50,[8],> 60 µM (not active)
same,EC50,[9],> 120 µM (not active)
same,EC50,[10],145 nM (active)
same,EC50,[11],5.31 µM (active)
same,EC50,[12],16 µM (active)
same,CC50,[13],33.2 µM (active)
COc1cc(/C=C2/CCc3ccccc3C2=O)cc(OC)c1OC,IC50,HEK293 [14],9.24 µM (active)
same,EC50,HEK293 [15],> 20 µM (inactive)
same,IC50,HEK293 [16],> 20 µM (inactive)
O=C(Nc1ccn(Cc2ccccc2F)n1)c1ccc(COc2cc(Cl)ccc2Cl)o1,EC50,[1],7.11 µM (active)
same,AC50,Cytochrome P450 1A2,3.55 µM (inconclusive)
COc1ccccc1N(O)C1CC(=O)N(c2ccc(Br)cc2)C1=O (stereo unspecified),IC50,Genome polyprotein,34.7 µM (active)
C/C(CC(c1ccccc1)c1c(O)oc2ccccc2c1=O)=N\Nc1ccc([N+](=O)[O-])cc1[N+](=O)[O-] (stereo unspecified),IC50,Genome polyprotein,94.4 µM (active)
Cc1ccc(-c2ccc(/C=N/N3C(=O)C4C5C=CC(C6CC56)C4C3=O)o2)c([N+](=O)[O-])c1 (stereo unspecified),EC50,[1],7.22 µM (active)
Cc1snc(S(=O)(=O)/C(C#N)=N/Nc2ccc(C(F)(F)F)cc2)c1C#N,AC50,[17],7.49 µM (active)
same,EC50,[1],6.48 µM (active)
CCN1CCCC1CNC(=O)c1cc2c(-c3ccc(Cl)cc3)nn(C)c2s1 (stereo unspecified),EC50,[2],> 79.4 µM (not active)
same,EC50,[18],5.98 µM (active)
same,EC50,[3],> 79.4 µM (not active)
same,EC50,[19],5.02 µM (active)
same,EC50,[4],> 79.4 µM (not active)
